We go through 55 compounds from ChEMBL document CHEMBL3526022, “Which metabolites circulate?” (Drug Metab Dispos, 2013).

One data set relates to Homo sapiens. In words: Unbound hepatobiliary clearance in human treated with dilitiazem at 120 mg, po. It is filed as ADME, organism-based. The conditions noted are these: in vivo.
In turn, `CNCCN1C(=O)[C@H](OC(C)=O)[C@H](c2ccc(OC)cc2)Sc2ccccc21` registered a CL free of 25 mL/min/kg.

System in another data set: not listed separately
The data set can be described thus: Fraction unbound in human. It is filed as ADME, organism-based. The conditions noted are these: in vivo.
The fraction unbound is the share of the substance not bound to proteins or other matrix. The low end stands for little free substance, the high end for much free substance. For the compound `NC(=O)C(c1ccccc1)(c1ccccc1)[C@@H]1CCN(CCc2ccc3c(c2)CCO3)C1` [DARIFENACIN], the fraction unbound worked out at 0.02.

System in a further data set: not listed separately
The data set can be described thus: Clearance in iv dosed patient with renal impairment. It is filed as ADME, organism-based. The conditions noted are these: human, in vivo.
Consider `O=C1CC2(CCCC2)CC(=O)N1CCCCN1CCN(c2ncccn2)CC1` [BUSPIRONE], for which the clearance was 28 mL/min/kg.

System in the next data set: not listed separately
In words: clinical. The conditions noted are these: human, in vivo, po.
As a reminder, the CL/F is clearance divided by bioavailability, as obtained after extravascular dosing. `CC(C)C(=O)Nc1ccc([N+](=O)[O-])c(C(F)(F)F)c1` [FLUTAMIDE] yielded a CL/F greater than 600 mL/min/kg.

System in the next data set: not listed separately
The data set can be described thus: physchem.
Details: not given
What is called pKa is the pH at which an ionisable group is half protonated. A low value points to a stronger acid or weaker base. Compound `C#C[C@]1(O)CC[C@H]2[C@@H]3[C@H](C)CC4=C(CCC(=O)C4)[C@H]3CC[C@@]21C` [TIBOLONE] yielded a pKa of 15.

As for `Clc1ccc2c(c1)CCc1cccnc1C2=C1CCNCC1` [DESLORATADINE], the pKa stood at 9.27. Compound `Cc1c(OCC(F)(F)F)ccnc1C[S+]([O-])c1nc2ccccc2[nH]1` (stereo not drawn) [LANSOPRAZOLE] displayed a pKa of 11.2.

Regarding `CN1CCN(c2ccccc2/C=C2\SCCN(c3ccc(Cl)c(Cl)c3)C2=O)CC1` [ELZASONAN], the pKa came out at 11.5.

`CCC(C)n1ncn(-c2ccc(N3CCN(c4ccc(OCC5COC(Cn6cncn6)(c6ccc(Cl)cc6Cl)O5)cc4)CC3)cc2)c1=O` (stereo not drawn) [ITRACONAZOLE] yielded a pKa of 15. `COc1ccccc1OCC(O)CN1CCN(CC(=O)Nc2c(C)cccc2C)CC1` (stereo not drawn) [RANOLAZINE] registered a pKa of 9.59. The compound `CC(NC(C)(C)C)C(=O)c1cccc(Cl)c1` (stereo not drawn) [BUPROPION] registered a pKa of 15.4.

The compound `CN1C2CCCC1CC(NC(=O)c1nn(C)c3ccccc13)C2` (stereo not drawn) [GRANISETRON] returned a pKa of 8.9. Turning to `CCn1cc(C(=O)O)c(=O)c2ccc(C)nc21` [NALIDIXIC ACID], the pKa came out at 13. Still for that read-out and setting: the same measure for `CCCSc1nc(N[C@@H]2C[C@H]2c2ccc(F)c(F)c2)c2nnn([C@@H]3C[C@H](OCCO)[C@@H](O)[C@H]3O)c2n1` [TICAGRELOR]: 14.3; for `CCc1ccc(CCOc2ccc(CC3SC(=O)NC3=O)cc2)nc1` (stereo not drawn) [PIOGLITAZONE]: 13.7. In turn, `COc1ccc2c3c1O[C@H]1[C@@H](O)C=C[C@H]4[C@@H](C2)N(C)CC[C@@]341` [CODEINE] showed a pKa of 9.48. The same measure, in the same setting: the same measure for `CC(C)(C)c1ccc(C(O)CCCN2CCC(C(O)(c3ccccc3)c3ccccc3)CC2)cc1` (stereo not drawn) [TERFENADINE]: 15. Same read-out and setting: under `C[C@H](NC(=O)C(C)(C)Oc1ccc(C(F)(F)F)cn1)[C@@H](Cc1ccc(Cl)cc1)c1cccc(C#N)c1` [TARANABANT] stands 15.1. Turning to `CCOc1cc([C@@H](CS(C)(=O)=O)N2C(=O)c3cccc(NC(C)=O)c3C2=O)ccc1OC`, the pKa was found to be 9.8. As to `O=C(NCC1CCCCN1)c1cc(OCC(F)(F)F)ccc1OCC(F)(F)F` (stereo not drawn) [FLECAINIDE], the pKa was determined as 9.28. The same measure, in the same setting: the same measure for `CC(C)CCC(=O)CC1c2ccccc2C(=O)N1c1ccc2ccc(Cl)nc2n1` (stereo not drawn) [PAGOCLONE]: 15; for `O[C@H](CNC[C@@H](O)[C@H]1CCc2cc(F)ccc2O1)[C@@H]1CCc2cc(F)ccc2O1` (relative stereo): 14; for `Cc1ccc(-c2cc(C(F)(F)F)nn2-c2ccc(S(N)(=O)=O)cc2)cc1` [CELECOXIB]: 14.2. Same read-out and setting: under `O=C(C1CCCCC1)N1CC(=O)N2CCc3ccccc3C2C1` (stereo not drawn) [PRAZIQUANTEL] stands 15. Still for that read-out and setting: under `CNCCC=C1c2ccccc2CCc2ccccc21` [NORTRIPTYLINE] stands 13.9; under `CC(C)C(=O)Nc1ccc([N+](=O)[O-])c(C(F)(F)F)c1` [FLUTAMIDE], 12.9; under `Cc1onc(-c2ccccc2)c1-c1ccc(S(N)(=O)=O)cc1` [VALDECOXIB], 13.1.

On to `COc1ccc(-n2nc(C(N)=O)c3c2C(=O)N(c2ccc(N4CCCCC4=O)cc2)CC3)cc1` [APIXABAN], for which the pKa was 8.56. Still for that read-out and setting: the same measure for `CNCC[C@H](Oc1cccc2ccccc12)c1cccs1` [DULOXETINE]: 9.97.

Consider `CNCC[C@@H](Oc1ccccc1C)c1ccccc1` [ATOMOXETINE], for which the pKa amounted to 10.3. For the compound `CC(C)(O)c1ccccc1CC[C@@H](SCC1(CC(=O)O)CC1)c1cccc(/C=C/c2ccc3ccc(Cl)cc3n2)c1` [MONTELUKAST], the pKa stood at 15.9. Same read-out and setting: the same measure for `COc1ccc2c(c1)[C@]13CCCC[C@@H]1[C@H](C2)N(C)CC3` [DEXTROMETHORPHAN]: 10.1; for `CCc1cccc2cc(C(O)CNC(C)(C)C)oc12` (stereo not drawn) [BUFURALOL]: 14.3; for `O=C1CC2(CCCC2)CC(=O)N1CCCCN1CCN(c2ncccn2)CC1` [BUSPIRONE]: 12.5. In turn, `CN(Cc1cc(Br)cc(Br)c1N)C1CCCCC1` [BROMHEXINE] yielded a pKa of 15.1. `CN1CC(=O)N2[C@H](c3ccc4c(c3)OCO4)c3[nH]c4ccccc4c3C[C@@H]2C1=O` came in with a pKa of 9.87.

For the compound `CCc1cc2c(cc1CC)CC(NC[C@H](O)c1ccc(O)c3[nH]c(=O)ccc13)C2` [INDACATEROL], the pKa amounted to 14.6.

Take `N#CC[C@H](C1CCCC1)n1cc(-c2ncnc3[nH]ccc23)cn1` [RUXOLITINIB]: the pKa is 14.9. On the same count and under the same terms, under `CCOc1cc(CC(=O)N[C@@H](CC(C)C)c2ccccc2N2CCCCC2)ccc1C(=O)O` [REPAGLINIDE] stands 14.8.

`NC(=O)C(c1ccccc1)(c1ccccc1)[C@@H]1CCN(CCc2ccc3c(c2)CCO3)C1` [DARIFENACIN]: the pKa was determined as 13.5. In the case of `OCCOCCN1CCN(C2=Nc3ccccc3Sc3ccccc32)CC1` [QUETIAPINE], the pKa stood at 11.2. On the same count and under the same terms, the same measure for `C#Cc1cccc(Nc2ncnc3cc(OCCOC)c(OCCOC)cc23)c1` [ERLOTINIB]: 13.9; for `CN(CCOc1ccc(CC2SC(=O)NC2=O)cc1)c1ccccn1` (stereo not drawn) [ROSIGLITAZONE]: 10.3. Still for that read-out and setting: under `COc1cccc(C2(O)CCCCC2CN(C)C)c1` (racemic) [TRAMADOL] stands 10. In turn, `COc1ccc(CCN2CCC(Nc3nc4ccccc4n3Cc3ccc(F)cc3)CC2)cc1` [ASTEMIZOLE] yielded a pKa of 10.1.

For the compound `Clc1ccc2c(c1)C(N1CCNCC1)=Nc1ccccc1O2` [AMOXAPINE], the pKa was 11.2. Compound `COc1ccc2[nH]c([S+]([O-])Cc3ncc(C)c(OC)c3C)nc2c1` (stereo not drawn) [OMEPRAZOLE] gave a pKa of 13.2.

`O=C(c1ccc(F)cc1)C1CCN(CCn2c(=O)[nH]c3ccccc3c2=O)CC1` [KETANSERIN] gave a pKa of 14.1. On the same count and under the same terms, the same measure for `Cc1c(O)cccc1C(=O)N[C@@H](CSc1ccccc1)[C@H](O)CN1C[C@H]2CCCC[C@H]2C[C@H]1C(=O)NC(C)(C)C`: 8.57; for `Cc1ncc2n1-c1ccc(Cl)cc1C(c1ccccc1F)=NC2` [MIDAZOLAM]: 13.6; for `COc1ccccc1Oc1c(NS(=O)(=O)c2ccc(C(C)(C)C)cc2)nc(-c2ncccn2)nc1OCCO` [BOSENTAN]: 8.36. Same read-out and setting: the same measure for `COc1ccnc(C[S+]([O-])c2nc3ccc(OC(F)F)cc3[nH]2)c1OC` (stereo not drawn) [PANTOPRAZOLE]: 7.69; for `O=C1Nc2ccc(Cl)cc2[C@@](C#CC2CC2)(C(F)(F)F)O1` [EFAVIRENZ]: 7.18. On the same count and under the same terms, the same measure for `Fc1ccc([C@@H]2CCNC[C@H]2COc2ccc3c(c2)OCO3)cc1` [PAROXETINE]: 10.3; for `O=C(O[C@@H]1C[C@@H]2C[C@H]3C[C@H](C1)N2CC3=O)c1c[nH]c2ccccc12` [DOLASETRON]: 14.6; for `CCc1nn(CCCN2CCN(c3cccc(Cl)c3)CC2)c(=O)n1CCOc1ccccc1` [NEFAZODONE]: 13.8. Compound `COCc1c(C(C)C)nc(C(C)C)c(/C=C/[C@@H](O)C[C@@H](O)CC(=O)O)c1-c1ccc(F)cc1` [CERIVASTATIN] had a pKa of 14.4.

`COc1ccc(C(=O)Nc2ccccc2CCC2CCCCN2C)cc1` (stereo not drawn) [ENCAINIDE] returned a pKa of 8.34.
